Experiment [1] deals with T1, DDB1DB/DCAF15 and RBM39 R1R2 complex (Homo sapiens, UniProt Q14498+Q66K64).
T1 construct: Amino acids 150 to 331 of RBM39 were cloned into pGEX4T3; GST (from vector pGEX4T3); TEV cleavage site (N); made in house; host or cells: DDB1DB/His-DCAF15: baculovirus/Sf9 co-expression; RBM39 R1R2: E. coli (pGEX4T3)
Put plainly: DCAF15 RBM39 Complex Formation Assay (FRET). The class given is binding. The conditions noted are these: FRET ratio Em 665/Em 615, incubated overnight at 4° C. An outline of the steps: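 Ternary complex formation read by TR-FRET (Em 665/615, excitation 340 nm) after overnight incubation at 4° C of 20 nM baculovirus DDB1DB/His-DCAF15 and 50 nM E. coli RBM39 RRM1-RRM2 FLAG fragment with 14-point, 3-fold compound dilutions from 1 μM; EC50 from 4-parameter fit.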

Experiment [2] relates to HCT116 human colorectal carcinoma cells. The experiment in a line: CellTiter-Glo Luminescent Cell Viability Assay. The class given is cell-based. The note with it: HCT-116, 72 h, 3 days. An outline of the steps: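 HCT116 cells were exposed for 3 days to compound in triplicate at final concentrations of 5 to 0.0002 […] (1:3 dilutions). Viability was read by CellTiter-Glo luminescence, and IC50 values were calculated.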
In general terms: Cellular ATP, detected with luciferase, serves as a proxy for viable cell number.

This passage reports IC50 and EC50 results from patent US20250368627A1, “PYRAZOLESULFONAMIDES AS ANTITUMOR AGENTS” (Peloton Therapeutics, Inc., a fully owned subsidiary of …, priority 2019, published 2025).

T1 sequence (Q66K64 whole entry, the tested form may be a part): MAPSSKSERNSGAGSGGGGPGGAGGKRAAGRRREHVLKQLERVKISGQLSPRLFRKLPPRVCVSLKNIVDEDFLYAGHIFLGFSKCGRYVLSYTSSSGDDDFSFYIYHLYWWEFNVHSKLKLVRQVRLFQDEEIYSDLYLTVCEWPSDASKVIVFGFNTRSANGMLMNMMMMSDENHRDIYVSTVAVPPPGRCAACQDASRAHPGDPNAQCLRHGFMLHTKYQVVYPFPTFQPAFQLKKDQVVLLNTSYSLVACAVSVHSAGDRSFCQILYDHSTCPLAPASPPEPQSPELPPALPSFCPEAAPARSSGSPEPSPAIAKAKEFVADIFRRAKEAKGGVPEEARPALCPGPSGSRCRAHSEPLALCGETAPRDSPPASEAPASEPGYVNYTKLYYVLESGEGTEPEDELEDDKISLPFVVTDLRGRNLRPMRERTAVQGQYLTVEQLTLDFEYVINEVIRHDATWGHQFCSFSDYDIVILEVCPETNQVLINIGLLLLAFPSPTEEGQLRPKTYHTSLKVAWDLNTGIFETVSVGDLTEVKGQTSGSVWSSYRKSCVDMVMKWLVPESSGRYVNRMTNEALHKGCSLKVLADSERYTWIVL
T1 sequence (Q14498 150-331): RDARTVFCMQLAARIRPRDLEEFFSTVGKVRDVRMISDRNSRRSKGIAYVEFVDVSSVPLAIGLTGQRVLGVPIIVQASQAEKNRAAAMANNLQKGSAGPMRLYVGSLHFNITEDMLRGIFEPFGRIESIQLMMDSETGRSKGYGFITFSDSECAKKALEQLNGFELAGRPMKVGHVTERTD
T1 sequence (Q16531 with tags, fused parts or gaps DEL396-708 partner): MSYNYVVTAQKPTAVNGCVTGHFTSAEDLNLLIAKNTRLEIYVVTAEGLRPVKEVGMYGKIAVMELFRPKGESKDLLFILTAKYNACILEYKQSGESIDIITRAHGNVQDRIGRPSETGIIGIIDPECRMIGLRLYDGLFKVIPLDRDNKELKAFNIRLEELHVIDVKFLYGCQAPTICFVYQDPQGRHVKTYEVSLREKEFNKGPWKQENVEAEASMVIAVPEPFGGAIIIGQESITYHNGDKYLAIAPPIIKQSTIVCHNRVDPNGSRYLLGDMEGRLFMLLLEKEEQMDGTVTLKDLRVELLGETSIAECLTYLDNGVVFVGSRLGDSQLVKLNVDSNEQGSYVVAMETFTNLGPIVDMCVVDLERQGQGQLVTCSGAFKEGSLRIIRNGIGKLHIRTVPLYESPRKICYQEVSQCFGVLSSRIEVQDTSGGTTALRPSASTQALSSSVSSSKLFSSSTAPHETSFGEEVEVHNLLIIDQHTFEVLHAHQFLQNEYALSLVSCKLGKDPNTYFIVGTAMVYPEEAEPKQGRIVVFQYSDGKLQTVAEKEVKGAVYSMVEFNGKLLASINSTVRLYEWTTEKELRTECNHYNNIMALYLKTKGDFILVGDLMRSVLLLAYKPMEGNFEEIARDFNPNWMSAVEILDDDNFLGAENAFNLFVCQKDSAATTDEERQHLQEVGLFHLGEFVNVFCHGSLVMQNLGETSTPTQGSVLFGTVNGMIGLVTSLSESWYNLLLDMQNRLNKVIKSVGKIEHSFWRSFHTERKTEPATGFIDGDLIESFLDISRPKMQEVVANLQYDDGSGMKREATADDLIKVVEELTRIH

In general, IC50 refers to the concentration that gives 50% inhibition. For orientation: EC50 means the midpoint of the concentration-response curve. `CC(C)(C)OC(=O)N1CC(F)(Cn2cc(S(=O)(=O)Nc3ccc(Cl)c4c(C#N)c[nH]c34)cn2)C1` [Compound 254, tert-butyl 3-[[4-[(4-chloro-3-cyano-1H-indol-7-yl)sulfamoyl]pyrazol-1-yl]methyl]-3-fluoro-azetidine-1-carboxylate]: the IC50 in experiment [1] is under 250 nM. The EC50 in experiment [2] lay within 250 to 1000 nM.

Turning to `Cc1ccc(NS(=O)(=O)c2cnn(CC3(F)CN(C(=O)OC(C)(C)C)C3)c2)c2[nH]cc(C#N)c12` [Compound 255, tert-butyl 3-[[4-[(3-cyano-4-methyl-1H-indol-7-yl)sulfamoyl]pyrazol-1-yl]methyl]-3-fluoro-azetidine-1-carboxylate], the IC50 in experiment [1] was under 250 nM. Further, the EC50 in experiment [2] fell in the range of 250 to 1000 nM.

`N#Cc1c[nH]c2c(NS(=O)(=O)c3cnn(CC4(F)CNC4)c3)ccc(Cl)c12` [Compound 256, N-(4-chloro-3-cyano-1H-indol-7-yl)-1-[(3-fluoroazetidin-3-yl)methyl]pyrazol-4-sulfonamide]: the IC50 in experiment [1] was under 250 nM. Also, in experiment [2], the EC50 is over 1000 nM.

Consider `Cc1ccc(NS(=O)(=O)c2cnn(CC3(F)CNC3)c2)c2[nH]cc(C#N)c12` [Compound 257, N-(3-cyano-4-methyl-1H-indol-7-yl)-1-[(3-fluoroazetidin-3-yl)methyl]pyrazole-4-sulfonamide], for which the IC50 in experiment [1] is under 250 nM. The EC50 in experiment [2] was 250 to 1000 nM.

For `Cc1ccc(NS(=O)(=O)c2cnn(CC(C)(C)CO)c2)c2[nH]cc(C#N)c12` [Compound 258, N-(3-cyano-4-methyl-1H-indol-7-yl)-1-(3-hydroxy-2,2-dimethylpropyl)-1H-pyrazole-4-sulfonamide], the IC50 in experiment [1] is under 250 nM. In addition, the EC50 in experiment [2] is under 250 nM.

Take `CC(C)(CO)n1cc(S(=O)(=O)Nc2ccc(Cl)c3c(C#N)c[nH]c23)c(Cl)n1` [Compound 260, 3-chloro-N-(4-chloro-3-cyano-1H-indol-7-yl)-1-(2-hydroxy-1,1-dimethyl-ethyl)pyrazole-4-sulfonamide]: in experiment [1], the IC50 is under 250 nM. In experiment [2], the EC50 was over 1000 nM.

On to `CC(C)(CO)n1cc(S(=O)(=O)Nc2ccc(F)c3c(C#N)c[nH]c23)c(Cl)n1` [Compound 261, 3-chloro-N-(3-cyano-4-fluoro-1H-indol-7-yl)-1-(2-hydroxy-1,1-dimethyl-ethyl)pyrazole-4-sulfonamide], for which, in experiment [1], the IC50 was under 250 nM. For the same compound, the EC50 in experiment [2] was over 1000 nM.

For the compound `COCC(CO)n1cc(S(=O)(=O)Nc2ccc(Cl)c3c(C#N)c[nH]c23)cn1` (stereo not shown) [Compound 262, N-(4-chloro-3-cyano-1H-indol-7-yl)-1-[1-(hydroxymethyl)-2-methoxy-ethyl]pyrazole-4-sulfonamide], the IC50 in experiment [1] is under 250 nM. In addition, the EC50 in experiment [2] fell in the range of 250 to 1000 nM.

In the case of `COCC(CO)n1cc(S(=O)(=O)Nc2ccc(C)c3c(C#N)c[nH]c23)cn1` (stereo not shown) [Compound 263, N-(3-cyano-4-methyl-1H-indol-7-yl)-1-[1-(hydroxymethyl)-2-methoxy-ethyl]pyrazole-4-sulfonamide], the IC50 in experiment [1] is under 250 nM. Also, in experiment [2], the EC50 lay in the range of 250 to 1000 nM.

As to `Cc1ccc(NS(=O)(=O)c2cnn(C[C@@H](C)CO)c2)c2[nH]cc(C#N)c12` [Compound 264, N-(3-cyano-4-methyl-1H-indol-7-yl)-1-[(2R)-3-hydroxy-2-methyl-propyl]pyrazole-4-sulfonamide], the IC50 in experiment [1] was under 250 nM. Further, the EC50 in experiment [2] is under 250 nM.

Regarding `C[C@@H](CO)Cn1cc(S(=O)(=O)Nc2ccc(Cl)c3c(C#N)c[nH]c23)cn1` [Compound 265, N-(4-chloro-3-cyano-1H-indol-7-yl)-1-[(2R)-3-hydroxy-2-methyl-propyl]pyrazole-4-sulfonamide], the IC50 in experiment [1] was under 250 nM. In addition, in experiment [2], the EC50 lay within 250 to 1000 nM.

`C[C@@H](CO)n1cc(S(=O)(=O)Nc2ccc(Cl)c3c(C#N)c[nH]c23)cn1` [Compound 266, N-(4-chloro-3-cyano-1H-indol-7-yl)-1-[(1S)-2-hydroxy-1-methyl-ethyl]pyrazole-4-sulfonamide]: in experiment [1], the IC50 was under 250 nM. The EC50 in experiment [2] was in the range of 250 to 1000 nM.

Consider `C[C@@H](CO)n1cc(S(=O)(=O)Nc2ccc(F)c3c(C#N)c[nH]c23)cn1` [Compound 267, N-(3-cyano-4-fluoro-1H-indol-7-yl)-1-[(1S)-2-hydroxy-1-methyl-ethyl]pyrazole-4-sulfonamide], for which, in experiment [1], the IC50 is under 250 nM. Further, in experiment [2], the EC50 lay within 250 to 1000 nM.

With `Cc1ccc(NS(=O)(=O)c2cnn(C3(CO)CC3)c2)c2[nH]cc(C#N)c12` [Compound 268, N-(3-cyano-4-methyl-1H-indol-7-yl)-1-[1-(hydroxymethyl)cyclopropyl]pyrazole-4-sulfonamide], in experiment [1], the IC50 is under 250 nM. Further, the EC50 in experiment [2] was under 250 nM.

With `N#Cc1c[nH]c2c(NS(=O)(=O)c3cnn(C4(CO)CC4)c3)ccc(Cl)c12` [Compound 269, N-(4-chloro-3-cyano-1H-indol-7-yl)-1-[1-(hydroxymethyl)cyclopropyl]pyrazole-4-sulfonamide], the IC50 in experiment [1] is under 250 nM. Also, the concentration giving a half-maximal response (EC50) in experiment [2] is 250 to 1000 nM.

In the case of `Cc1ccc(NS(=O)(=O)c2cnn(CCC(C)O)c2)c2[nH]cc(C#N)c12` (stereo not shown) [Compound 270, N-(3-cyano-4-methyl-1H-indol-7-yl)-1-(3-hydroxybutyl)pyrazole-4-sulfonamide], the IC50 in experiment [1] is under 250 nM. Besides, the EC50 in experiment [2] lay in the range of 250 to 1000 nM.

For the compound `CCn1ncc(S(=O)(=O)Nc2ccc(C)c3c(C#N)c[nH]c23)c1N` [Compound 271, 5-amino-N-(3-cyano-4-methyl-1H-indol-7-yl)-1-ethyl-pyrazole-4-sulfonamide], the IC50 in experiment [1] is under 250 nM. In experiment [2], the EC50 was under 250 nM.

Regarding `CCn1ncc(S(=O)(=O)Nc2ccc(F)c3c(C#N)c[nH]c23)c1N` [Compound 272, 5-amino-N-(3-cyano-4-fluoro-1H-indol-7-yl)-1-ethyl-pyrazole-4-sulfonamide], the IC50 in experiment [1] is under 250 nM. In addition, the EC50 in experiment [2] lay within 250 to 1000 nM.

With `CCn1ncc(S(=O)(=O)Nc2ccc(Cl)c3c(C#N)c[nH]c23)c1N` [Compound 273, 5-amino-N-(4-chloro-3-cyano-1H-indol-7-yl)-1-ethyl-pyrazole-4-sulfonamide], the IC50 in experiment [1] is under 250 nM. Moreover, in experiment [2], the EC50 was under 250 nM.

Take `Cc1ccc(NS(=O)(=O)c2cnn([C@H](C)[C@H](C)O)c2)c2[nH]cc(C#N)c12` [Compound 274, N-(3-cyano-4-methyl-1H-indol-7-yl)-1-[(1R,2S)-2-hydroxy-1-methyl-propyl]pyrazole-4-sulfonamide]: in experiment [1], the IC50 is under 250 nM. For the same compound, in experiment [2], the EC50 was under 250 nM.

For `C[C@H](O)[C@@H](C)n1cc(S(=O)(=O)Nc2ccc(Cl)c3c(C#N)c[nH]c23)cn1` [Compound 275, N-(4-chloro-3-cyano-1H-indol-7-yl)-1-[(1R,2S)-2-hydroxy-1-methyl-propyl]pyrazole-4-sulfonamide], the IC50 in experiment [1] is under 250 nM. Besides, in experiment [2], the EC50 was 250 to 1000 nM.

As for `Cc1ccc(NS(=O)(=O)c2cnn(CC(C)(C)O)c2Cl)c2[nH]cc(C#N)c12` [Compound 276, 5-chloro-N-(3-cyano-4-methyl-1H-indol-7-yl)-1-(2-hydroxy-2-methyl-propyl)pyrazole-4-sulfonamide], in experiment [1], the IC50 is under 250 nM. Also, the EC50 in experiment [2] lay in the range of 250 to 1000 nM.

Consider `Cc1ccc(NS(=O)(=O)c2cnn(CC(F)F)c2N)c2[nH]cc(C#N)c12` [Compound 277, 5-amino-N-(3-cyano-4-methyl-1H-indol-7-yl)-1-(2,2-difluoroethyl)pyrazole-4-sulfonamide], for which, in experiment [1], the IC50 is under 250 nM. Also, the EC50 in experiment [2] was under 250 nM.
